Laboratory results published in patent publication US11572475B2, “Carbocyanines for G-quadruplex DNA stabilization and telomerase inhibition” (GEORGIA STATE UNIVERSITY RESEARCH FOUNDATION, INC., priority 2011, dated 2023).

How the values were obtained:
[1] = Trypan blue exclusion assay for cell viability, HDF; format: cell-based; settings: human, HDF cells (non-cancerous cell line); at the lower dose (5 μM); read-out: cell viability of normal cells (HDF)
Experimental: (§1) To evaluate the cytotoxic properties of the cyanines described herein, trypan blue exclusion assay for cell viability was performed on 10 compounds at two different concentrations (5 μM and 20 μM). To test the cancer selectivity of the dyes, the results were compared in a cancer cell line, HeLa and a non-cancerous cell line, HDF. The loss of membrane integrity in dead and dying cells allows preferential uptake of labels like trypan blue. At the end of the incubation times with the dyes, HeLa or HDF cells were pelleted and washed with PBS. Well-suspended cells were mixed with equal volume of 0.4% trypan blue in 1×PBS, pH 7.4, followed by incubation at room temperature for 5 min. Cells were examined under the microscope and blue-stained cells were considered non-viable.

HeLa cells = assay: Trypan blue exclusion assay for cell viability, HeLa; format: cell-based; settings: for Hela cells killed: after 24 h
Experimental: as §1

[2] = system: Human Telomere (HT) quadruplex DNA; assay: Thermal melting UV-Vis absorbance, quadruplex DNA; format: binding; settings: for Change in Thermal Melting Points, Human Telomere (HT), 1:1: ratio 1:1 (R); for Change in Thermal Melting Points, Human Telomere (HT), 2:1: ratio 2:1 (R); for Change in Thermal Melting Points, Human Telomere (HT), 4:1: ratio 4:1 (R); for Change in Thermal Melting Points, Human Telomere (HT), 6:1: ratio 6:1 (R); for Selectivity for quadruplex over duplex DNA by thermal melting: quadruplex vs duplex
Experimental: (§2) Three DNA sequences were used: Human Telomere (HTelo), c-myc, and Duplex (Integrated DNA Technologies, San Diego, Calif.). The sequences are shown below:
The concentration of each DNA sample mixed with MilliQ water was determined by UV-Vis at 260 nm using their extinction coefficients. Quadruplexes from Human Telomere (Tel22) and c-myc were prepared by heating the corresponding oligonucleotides at 90° C. for 5 minutes in a 10 mM Tris/50 mM KCl buffer at pH 7.5 and then cooling to room temperature (to favor the intramolecular folding).
(§3) The buffer used was 10 mM Tris base (Fischer Scientific, Fairlawn, N.J.), 50 mM Potassium Chloride (Fischer Scientific, Fairlawn, N.J.), with the pH adjusted to 7.5 with Hydrochloric Acid (Fischer Scientific, Fairlawn, N.J.).
(§4) DNA folding and unfolding (melting) can be measured using absorbance at a constant wavelength of 260 nm for duplex DNA and 295 nm for quadruplex DNA while the temperature is increased, for example from 25° C. to 95° C. At these wavelengths, the resulting curves decrease in absorbance for quadruplex and increase for duplex DNA. Buffer solution and presence of DNA-binding compounds alter the Tm melting temperature, or midpoint between fully folded and unfolded. An increase in melting temperature in the presence of DNA-binding compounds indicates a stabilizing effect of the compound on the DNA structure.
(§5) The selectivity of a given cyanine for quadruplex DNA can be evaluated using thermal melting. The number in parentheses next to the compound number corresponds to the compound number in Schemes 1 and 2.
(§6) Thermal melting studies were also performed on compounds T4 and T5 (Scheme 2) and ZK-14 and SP-2-36.

c-Myc quadruplex DNA = assay: Fluorescence titration with c-Myc quadruplex; format: binding; settings: fluorescence intensity of bound ligand divided by that of free ligand
Description: (§7) Atoms absorb energy and can emit it as heat (vibrational relaxation), fast light emission (fluorescence), or slow light emission (phosphorescence). Most of the cyanines described herein fluoresce in response to near-infrared wavelengths of light absorption. As the cyanines bind to DNA, π-π stacking and hydrogen bonding is altered leading to a change in fluorescence emission. This change can be measured in direct correlation to DNA binding. In some cases an approximate binding constant can be determined from measuring fluorescence enhancement as DNA is titrated into a solution of fluorescent compound. Fluorescent enhancement, or the maximum emission divided by the minimum emission of the titration (compound saturated with DNA divided by free compound) at a fixed wavelength is useful to compare DNA affinity between a family of compounds.
(§8) A UV-Vis absorbance scan is first conducted to acquire the excitation wavelength. A 5 μM solution of compound in 1 mL, of Tris/K+ buffer is scanned from 800 nm to 200 nm at a rate of 60 nm/min with a 5 nm slit width. All DNAs are diluted in Tris/K+ buffer. The human telomere and c-Myc DNA are annealed into a quadruplex motif by heating at 95° C. in the presence of potassium ions in a hot water bath for approximately five minutes, then allowing the solution to slowly come to room temperature. In a fluorescence cell, an emission scan of 1 μM of compound in 1 mL of Tris Buffer is taken (Varian Cary Eclipse, Walnut Creek, Calif.) with appropriate parameters based on the excitation wavelength, an excitation slit width of 5 nm, and an emission slit width of 5 nm. Then 0.05 μM of DNA is titrated into the solution and scanned under the same conditions after each addition. The solution is titrated to saturation, at which the change in fluorescence intensity is nearly zero.
(§9) Due to the highly stabilized parallel quadruplex structure of c-Myc, thermal melting could not be considered for this sequence. Thus, fluorescence can be used to measure binding affinity towards the two quadruplex structures. […] Fluorescence enhancement, or the fluorescence intensity of the bound ligand divided by that of the free ligand, was considered in evaluating binding.

Duplex DNA = assay: Thermal melting UV-Vis absorbance, duplex DNA; format: binding; settings: for Change in Thermal Melting Points, Duplex, 1:1: ratio 1:1 (R); for Change in Thermal Melting Points, Duplex, 2:1: ratio 2:1 (R); for Change in Thermal Melting Points, Duplex, 4:1: ratio 4:1 (R); for Change in Thermal Melting Points, Duplex, 6:1: ratio 6:1 (R)
Experimental: as §2, §3, §4, §5, §6

hTelo = assay: Isothermal calorimetry, hTelo; format: binding, human; settings: 25° C.
Experimental: (§10) DNA binding is dependent on enthalpy and entropy, components of the Gibbs free energy. Isothermal calorimetry measures the heat absorbed (endothermic binding) or released (exothermic binding) in binding at the μcalorie level. By examining the thermodynamics of different compounds, compounds can be analyzed to determine what factors favor quadruplex over duplex DNA binding. Enthalpy and binding constants are determined from measuring the heat change when compound is injected into a DNA solution, and the equations ΔG=ΔH−TΔS ΔG=−RT ln K are used to calculate entropy and Gibbs free energy.
(§11) Solutions of compound (0.2 mM) were injected 30 times into solutions of DNA (0.02 mM) on a VPC-ITC. All solutions were degasses at 25° C. for 15 minutes. TRIS/K^+ buffer was used in the reference cell. The injections were monitored at 25° C. with a reference power of 1 μcal/sec, an initial delay of 300 sec, and a stirring speed of 290. The first injection was 2 μL for 4 sec, with a spacing of 300 sec, and a filter period of 1 sec. The remaining 29 injections were 10 μL volume for a duration of 20 sec, with a spacing of 300 sec, and a filter period of 1 sec. The data was analyzed by VPViewer 2000 software.
(§12) Isothermal calorimetry (ITC) experiments were performed to test the SPR and fluorescence preference in binding c-myc over hTelo. […]

A2T2 = assay: Isothermal calorimetry, A2T2; format: binding; settings: 25° C.
Experimental: as §10, §11, §12

[3] = system: Human Telomere (HT) quadruplex DNA; assay: Fluorescence titration with human telomere quadruplex; format: binding; settings: fluorescence intensity of bound ligand divided by that of free ligand
Description: as §7, §8, §9

c-myc = assay: Isothermal calorimetry, c-myc; format: binding; settings: ITC, 25° C.
Experimental: as §10, §11, §12

HDF cells = assay: Trypan blue exclusion assay for cell viability, HDF; format: cell-based; settings: at both concentrations; text also says lower concentrations (5-10 μM)
Experimental: as §1

For `CC1(C)C(/C=C/C(Br)=C/C=C2/N(CCC[N+](C)(C)C)c3ccc(I)cc3C2(C)C)=[N+](CCC[N+](C)(C)C)c2ccc(I)cc21` [A-161 (50)], the viability at 5 µM [1] was 100%, the Hela cells killed (HeLa cells; 5 μM) was > 70% and the Hela cells killed (HeLa cells; 20 μM) was > 70%. For the same compound, the “Change in Thermal Melting Points, Human Telomere (HT), 1:1” value (“Change … (HT), 1:1” for short) [2] was 4.1, the “Change in Thermal Melting Points, Human Telomere (HT), 2:1” value (shortened to “Change … (HT), 2:1”) [2] was 9.2 and the “Change in Thermal Melting Points, Human Telomere (HT), 4:1” value (“Change … (HT), 4:1” below) [2] was 16.2. The “Change in Thermal Melting Points, Human Telomere (HT), 6:1” value (from here on “Change … (HT), 6:1”) [2] was 21.7.
In the case of `CC1(C)C(/C=C/C=C2/N(CCC[N+](C)(C)C)c3ccc(Br)cc3C2(C)C)=[N+](CCC[N+](C)(C)C)c2ccc(Br)cc21` [MH5 (28)], the “Fluorescence Enhancement, c-Myc” value (c-Myc quadruplex DNA) is reported as 4.65, the “Change in Thermal Melting Points, Duplex, 1:1” value (Duplex DNA) is reported as −0.1 and the “Change in Thermal Melting Points, Duplex, 2:1” value (Duplex DNA) is reported as −1.0. For the same compound, the “Change in Thermal Melting Points, Duplex, 4:1” value (Duplex DNA) was −1.0, the “Change in Thermal Melting Points, Duplex, 6:1” value (Duplex DNA) was −0.1 and the “ITC binding to hTelo” value (hTelo) was “Weak binding- unable to fit”. The “ITC binding to A2T2” value (A2T2) was “No binding”, the “Fluorescence Enhancement, HT” value [3] was 1.6 and the “K (M^−1), c-myc” value (c-myc) was 1.19e+06 M⁻¹. For the same compound, the “Cytotoxicity to cancer cells” value (HeLa cells; HeLa, both concentrations studied (5 μM and 20 μM)) was “highly cytotoxic to cancer cells”, the “Selectivity for quadruplex over duplex DNA by thermal melting” value [2] was “selectively bind to quadruplex DNA with little or no binding to duplex DNA” and the “Change … (HT), 1:1” value [2] was 1. For the same compound, the “Change … (HT), 2:1” value [2] was 5.2, the “Change … (HT), 4:1” value [2] was 14.2 and the “Change … (HT), 6:1” value [2] was 23.7.
In the case of `CC1(C)C(/C=C/C(Br)=C/C=C2\N(CCC[N+](C)(C)C)c3ccccc3C2(C)C)=[N+](CCC[N+](C)(C)C)c2ccccc21` [A-C8 (43)], the “Fluorescence Enhancement, c-Myc” value (c-Myc quadruplex DNA) is reported as 3.46, the “Change in Thermal Melting Points, Duplex, 1:1” value (Duplex DNA) is reported as 0.0 and the “Change in Thermal Melting Points, Duplex, 2:1” value (Duplex DNA) is reported as −1.1. For the same compound, the “Change in Thermal Melting Points, Duplex, 4:1” value (Duplex DNA) was 0.9, the “Change in Thermal Melting Points, Duplex, 6:1” value (Duplex DNA) was −0.2 and the “K (M^−1), hTelo” value (hTelo; ITC) was 55700 M⁻¹. The “cell death, HDFs” value (HDF cells) was ~35%, the “ITC binding to A2T2” value (A2T2) was “No binding” and the “Fluorescence Enhancement, HT” value [3] was 1.66. The “K (M^−1), c-myc” value (c-myc) was 802000 M⁻¹, the “Selectivity for quadruplex over duplex DNA by thermal melting” value [2] was “selectively bind to quadruplex DNA with little or no binding to duplex DNA” and the “Change … (HT), 1:1” value [2] was 2.0. The “Change … (HT), 2:1” value [2] was 4.6, the “Change … (HT), 4:1” value [2] was 11.6 and the “Change … (HT), 6:1” value [2] was 15.6.
